Assays:
[1] = biological target: T1, hTRPM8 (Homo sapiens, UniProt Q7Z2W7); test: Assay on TRPM8 modulators: calcium imaging (Fluo-4, Flexstation 3) in HEK293 cell line stably expressing hTRPM8; assay type: cell-based; conditions: HEK293 cells stably expressing hTRPM8; Fluo-4 calcium imaging; sigmoidal dose-response fit; read-out: EC50 value (TRPM8 agonist, calcium influx)
T1 construct: expressed in transfected cells
Procedure: A HEK293 cell line stably expressing hTRPM8 was generated according to Klein et al., (Chem. Senses 36: 649-658, 2011) and receptor activation was monitored by calcium imaging in a Flexstation. For Ca-imaging assays of TRPM8 channel activation, cells were seeded on day 0 at a density of 12000 cells per well in Dulbecco's modified Eagle medium (DMEM) containing 9% foetal bovine serum in black, clear bottom 96-well plates that had been coated with 0.001% polyethyleneimine (molecular weight=60 000, Acros Organics). On day 2, agonists were evaluated via calcium imaging using Fluo-4. Briefly, growth medium was discarded, and the cells were incubated in the dark for 1 h at 37° C. in 50 μL loading buffer consisting of 2.7 μM Fluo-4 AM (Invitrogen) and […] probenecid (Sigma-Aldrich) in DMEM (without serum). […] The cells were then washed five times with 100 μL assay buffer and then calcium influx to serial dilutions of 2-(1-(2-(methylthio)propanoyl)piperidin-2-yl)-5-(p-tolyl)-1H-imidazolium carboxyformate was measured in a Flexstation 3 (Molecular Devices). […] Fluorescence was continuously monitored for 15 seconds prior to ligand addition and for 105 seconds after ligand addition, for a total of 120 seconds. Maximal receptor activation in relation to solvent control and relative to 31.6 μM menthol is determined. […]

[2] = Sensory evaluation in model dentifrice by a panel of trained flavourists; assay type: in vivo, human; conditions: 10 ppm in unflavored model dentifrice, brushing with 1 g for 60 seconds, no rinsing
Procedure: The oxalate of 2-(methylthio)-1-(2-(5-(p-tolyl)imidazol-2-yl)piperidin-1-yl)propan-1-one (prepared according to Example 1d) was dissolved at a concentration of 1 wt-% in propylene glycol. This solution was then dispersed in an appropriate quantity to obtain the desired final concentration of 10 ppm (parts per million) of the test compound into a model, unflavored dentifrice, the formula of which is given below (ingredients obtained from the suppliers respectively indicated in parenthesis).
A panel of trained flavourists evaluated the dentifrice containing the oxalate, by brushing their teeth with 1 g of the dentifrice using a toothbrush for 60 seconds, followed by spitting, without rinsing the mouth afterwards for the duration of the evaluation. The flavourists evaluated and recorded the cooling performance as well as other sensorial and organoleptic attributes at different time-points over a period of 90 minutes. The following tasting notes were recorded: Good coolant. Clean, with a pleasant, mild tingling effect. Active in all areas of the mouth.

T1 sequence (Q7Z2W7 whole entry): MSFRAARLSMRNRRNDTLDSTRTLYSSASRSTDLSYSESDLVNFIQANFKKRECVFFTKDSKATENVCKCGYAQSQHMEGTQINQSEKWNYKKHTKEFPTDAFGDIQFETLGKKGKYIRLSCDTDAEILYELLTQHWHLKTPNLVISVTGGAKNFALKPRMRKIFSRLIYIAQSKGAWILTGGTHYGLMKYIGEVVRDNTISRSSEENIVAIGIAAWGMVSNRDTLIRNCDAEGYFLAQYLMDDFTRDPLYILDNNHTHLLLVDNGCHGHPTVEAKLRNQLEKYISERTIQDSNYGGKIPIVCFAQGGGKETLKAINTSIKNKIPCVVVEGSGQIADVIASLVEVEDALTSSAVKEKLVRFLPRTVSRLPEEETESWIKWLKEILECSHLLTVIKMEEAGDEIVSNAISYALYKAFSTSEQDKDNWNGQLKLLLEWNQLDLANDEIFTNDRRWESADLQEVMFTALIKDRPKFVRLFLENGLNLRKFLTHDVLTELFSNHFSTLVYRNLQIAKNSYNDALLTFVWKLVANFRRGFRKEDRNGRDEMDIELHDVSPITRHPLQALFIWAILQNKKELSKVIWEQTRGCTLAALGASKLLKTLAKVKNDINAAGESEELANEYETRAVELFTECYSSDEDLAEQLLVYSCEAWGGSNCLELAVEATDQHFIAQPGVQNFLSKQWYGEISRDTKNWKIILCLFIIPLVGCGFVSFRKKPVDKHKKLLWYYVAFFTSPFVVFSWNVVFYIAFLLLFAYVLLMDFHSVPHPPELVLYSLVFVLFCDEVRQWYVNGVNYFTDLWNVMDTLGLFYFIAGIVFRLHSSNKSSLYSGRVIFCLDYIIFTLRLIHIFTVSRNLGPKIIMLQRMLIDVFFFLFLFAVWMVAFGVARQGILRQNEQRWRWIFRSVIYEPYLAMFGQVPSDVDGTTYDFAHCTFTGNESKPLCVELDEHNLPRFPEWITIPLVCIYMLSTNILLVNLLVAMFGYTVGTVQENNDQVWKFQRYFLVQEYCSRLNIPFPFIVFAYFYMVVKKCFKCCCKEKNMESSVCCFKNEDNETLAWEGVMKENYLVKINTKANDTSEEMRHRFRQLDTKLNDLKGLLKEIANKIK

**Q.** Which EC50 [1] does the source give for `CSC(C)C(=O)N1CCCCC1c1ncc(-c2ccc(C)cc2)[nH]1.O=C(O)C(=O)O` (stereo not shown) [Example 1d, 2-(1-(2-(methylthio)propanoyl)piperidin-2-yl)-5-(p-tolyl)-1H-imidazolium carboxyformate] here?
**A.** < 10 nM

**Q.** And the “onset of cooling effect (tasting notes)” value [2]?
**A.** Fast acting (upfront cooling) with effect perceived already during brushing

**Q.** What about the “cooling performance (tasting notes)” value ([2]; evaluated over 90 minutes) of the same molecule?
**A.** Good coolant

**Q.** What about the “longevity of cooling effect (tasting notes)” value ([2]; evaluated over 90 minutes) of the same molecule?
**A.** Strong cooling peak with long-lasting effect up to one hour

Reference: patent publication US20240197604A1, “COMPOUNDS WITH COOLING SENSATION PROPERTIES” (Givaudan SA, priority 2021, published 2024)
